From PubChem BioAssay (NCI)
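All cell lines were grown in 96-well plates and treated with compound for 48 hours. The concentration for 50% growth inhibition is given as GI50. The concentration for full growth arrest is given as TGI.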

Assays:
Assay in all cases: NCI anticancer screen, dose series, 48 h
[1] = system: HCT-116 colon
[2] = system: MCF7 breast
[3] = system: UACC-257 melanoma
[4] = system: SNB-75 CNS
[5] = system: OVCAR-8 ovarian
[6] = system: MDA-MB-231 breast
[7] = system: T-47D breast
[8] = system: SNB-19 CNS
[9] = system: NCI-H23 lung
[10] = system: SF-295 CNS
[11] = system: ACHN renal
[12] = system: COLO 205 colon
[13] = system: MALME-3M melanoma
[14] = system: A549 NSCLC
[15] = system: SK-MEL-28 melanoma
[16] = system: U251 CNS
[17] = system: EKVX NSCLC
[18] = system: NCI-H522 lung
[19] = system: A498 renal
[20] = system: HT29 colon
[21] = system: SR leukemia
[22] = system: M14 melanoma
[23] = system: SW-620 colon
[24] = system: HOP-92 NSCLC
[25] = system: TK-10 renal
[26] = system: CAKI-1 renal
[27] = system: NCI-H460 lung
[28] = system: 786-0 renal
[29] = system: OVCAR-3 ovarian
[30] = system: OVCAR-5 ovarian
[31] = system: DU-145 prostate
[32] = system: UO-31 renal
[33] = system: SK-MEL-2 melanoma
[34] = system: SK-MEL-5 melanoma
[35] = system: CCRF-CEM leukemia
[36] = system: IGROV1 ovarian
[37] = system: HCC-2998 colon
[38] = system: PC-3 prostate
[39] = system: MDA-MB-435
[40] = system: KM12 colon
[41] = system: LOX IMVI melanoma
[42] = system: SK-OV-3 ovarian
[43] = system: UACC-62 melanoma
[44] = system: HL-60(TB) leukemia
[45] = system: HOP-62 NSCLC
[46] = system: HCT-15 colon
[47] = system: K-562 leukemia
[48] = system: NCI-H226 lung
[49] = system: OVCAR-4 ovarian
[50] = system: HS 578T breast
[51] = system: BT-549 breast
[52] = system: MOLT-4 leukemia
[53] = system: SF-539 CNS
[54] = system: SF-268 CNS
[55] = system: RXF 393 renal
[56] = system: NCI/ADR-RES ovarian

CC1=C(C(=O)OCc2ccccc2)C(c2ccc3c(c2)OCO3)n2c(nc3ccccc32)N1 (centres undefined)
GI50 [1]: 420 nM
TGI [1]: > 100000 nM
GI50 [2]: 236 nM
TGI [2]: > 100000 nM
TGI [3]: > 100000 nM
GI50 [4]: 215 nM
TGI [4]: 801 nM
GI50 [5]: 628 nM
TGI [5]: > 100000 nM
GI50 [6]: > 92600 nM
TGI [6]: > 100000 nM
GI50 [7]: 508 nM
TGI [7]: > 100000 nM
GI50 [8]: 540 nM
TGI [8]: > 100000 nM
GI50 [9]: > 56400 nM
TGI [9]: > 100000 nM
GI50 [10]: 321 nM
TGI [10]: > 100000 nM
GI50 [11]: 630 nM
TGI [11]: > 100000 nM
GI50 [12]: 417 nM
TGI [12]: > 100000 nM
GI50 [13]: 370 nM
TGI [13]: > 100000 nM
GI50 [14]: 690 nM
TGI [14]: > 100000 nM
GI50 [15]: > 100000 nM
TGI [15]: > 100000 nM
GI50 [16]: 464 nM
TGI [16]: > 100000 nM
GI50 [17]: 692 nM
TGI [17]: > 100000 nM
GI50 [18]: 164 nM
TGI [18]: > 57600 nM
GI50 [19]: 362 nM
TGI [19]: > 100000 nM
GI50 [20]: 352 nM
TGI [20]: > 100000 nM
GI50 [21]: 400 nM
TGI [21]: > 100000 nM
GI50 [22]: 418 nM
TGI [22]: > 100000 nM
GI50 [23]: 346 nM
TGI [23]: > 100000 nM
GI50 [24]: > 100000 nM
TGI [24]: > 100000 nM
GI50 [25]: > 100000 nM
TGI [25]: > 100000 nM
GI50 [26]: 275 nM
TGI [26]: > 100000 nM
GI50 [27]: 369 nM
TGI [27]: > 100000 nM
GI50 [28]: 470 nM
TGI [28]: > 100000 nM
GI50 [29]: 235 nM
TGI [29]: 998 nM
GI50 [30]: > 100000 nM
TGI [30]: > 100000 nM
GI50 [31]: 488 nM
TGI [31]: > 100000 nM
GI50 [32]: 544 nM
TGI [32]: > 79500 nM
TGI [33]: > 100000 nM
GI50 [34]: 472 nM
TGI [34]: > 100000 nM
GI50 [35]: 418 nM
TGI [35]: > 100000 nM
GI50 [36]: 644 nM
TGI [36]: > 100000 nM
GI50 [37]: > 33200 nM
TGI [37]: > 100000 nM
GI50 [38]: 458 nM
TGI [38]: > 100000 nM
GI50 [39]: 84.2 nM
TGI [39]: 351 nM
GI50 [40]: 334 nM
TGI [40]: > 100000 nM
GI50 [41]: 566 nM
TGI [41]: > 100000 nM
GI50 [42]: 467 nM
TGI [42]: > 100000 nM
GI50 [43]: 513 nM
TGI [43]: > 100000 nM
GI50 [44]: 341 nM
TGI [44]: > 100000 nM
GI50 [45]: 8010 nM
TGI [45]: > 100000 nM
GI50 [46]: 360 nM
TGI [46]: > 100000 nM
GI50 [47]: 276 nM
TGI [47]: > 100000 nM
GI50 [48]: > 100000 nM
TGI [48]: > 100000 nM
GI50 [49]: 13300 nM
TGI [49]: > 100000 nM
GI50 [50]: 299 nM
TGI [50]: > 48800 nM
TGI [51]: > 100000 nM
GI50 [52]: 753 nM
TGI [52]: > 100000 nM
GI50 [53]: 340 nM
TGI [53]: > 100000 nM
GI50 [54]: 513 nM
TGI [54]: > 100000 nM
GI50 [55]: 305 nM
TGI [55]: > 100000 nM
GI50 [56]: 311 nM
TGI [56]: > 100000 nM
